Values joined by “and” are separate entries in the source; they are usually repeats but may differ in a detail not shown here. Identical values can stand only once.
Key:
human IL-4 promoter = test: IL-4 Luciferase assay in Jurkat cells (6.7-IL-4 Luc); assay type: cell-based; settings: Jurkat cell line; concentration not given
Anti-OVA IgE = test: OVA induced allergen specific IgE in mice; assay type: in vivo; settings: bled at day 15, vehicle 150.8
Experimental: Female mice (5-8 week age, Balb/c, Charles River) were used in this study. Ovalbumin (Sigma) was adsorbed to Aluminum Hydroxide Adsorptive Gel, Inter, and injected 10 µg/0.2ml/mouse intraperitoneally on experimental day 0 and day 7. […] They were bled at day 15. Serum ovalbumin specific IgE levels were determined by standard ELISA using a goat anti-mouse IgE antibody labeled with alkaline phosphatase. The anti-OVA titers were determined by making serial dilutions of the test sera and comparing with vehicle control.

IgG2a Anti-DNP Antibody = test: In vivo model of humoral immunity in mice (DNP-KLH), IgG2a anti-DNP antibody
Experimental: Female Balb/c mice, each weighing approximately 20 to 25 grams each, aged 5 to 8 weeks are used. Each experiment uses 30 mice.
The antigen for immunization is 2,4-dinitrophenyl (DNP) or 2,4,6-trinitrophenyl (TNP) conjugated to keyhole limpet haemocyanin (KLH). The antigen (100 µg/mouse) is adsorbed to an adjuvant (colloidal aluminum hydroxide) and given i.p. to animal in a total volume of 0.2-0.3 ml.
Animals are randomly divided into 5 groups of 6 mice each. Group 1 is a positive control group, Groups 2, 3, and 4 are test compound groups, and Group 5 is a vehicle control group. Compounds may be given by i.n., i.p., p.o., s.c., i.m. or i.v. administration. […] On day 8 after the immunization, mice are bled by cardiac puncture under anesthesia (isoflurane), and the serum samples are stored at -20°C until required for antibody analysis. The anesthetized animals are euthanized with overdosage of sodium pentobarbital at the end of experiment. Statistical analysis of the data are performed using ANOVA.
Mice are immunized with a hapten carrier conjugate, DNP-KLH, and anti-DNP antibody levels are determined in a isotype specific manner as described above. […]

## O=C(O)c1[nH]c2ccccc2c1Nc1ccncc1 [Example 28, 3-(4-Pyridinylamino)-1H-indole-2-carboxylic acid]
Human IL-4 promoter
  6.7-IL-4 Luc (% of control): 62 ± 29 % of control
Anti-OVA IgE; 3 mg/kg intraperitoneally once a day from day 6 to day 14
  Anti-OVA IgE: 41.8
Anti-OVA IgE; 10 mg/kg intraperitoneally once a day from day 6 to day 14
  Anti-OVA IgE: 45.6
IgG2a Anti-DNP Antibody; individual animals 1-6, dose not stated
  IgG2a Anti-DNP Antibody Titer: 30.59 and 38.60 and 14.09 and 17.45 and 30.21 and 27.98
IgG2a Anti-DNP Antibody; vehicle 30.47 +/-2.37, dose not stated
  IgG2a Anti-DNP Antibody Titer Mean+/-SE: 26.49 +/-3.72
IgG2a Anti-DNP Antibody; versus vehicle
  IgG2a Anti-DNP Antibody Titer Inhibition: 13%
